# According to patent publication US7485651B2, “Compounds with activity on muscarinic receptors” (Acadia Pharmaceuticals, Inc., priority 1998, dated 2009):
# Columns and labels:
# serotonin 5-HT1A = target: T1, serotonin 5-HT1A (Homo sapiens, UniProt P08908); assay: Test against other receptors: serotonin 5-HT1A; type: cell-based
# T1 sequence (P08908 1-422): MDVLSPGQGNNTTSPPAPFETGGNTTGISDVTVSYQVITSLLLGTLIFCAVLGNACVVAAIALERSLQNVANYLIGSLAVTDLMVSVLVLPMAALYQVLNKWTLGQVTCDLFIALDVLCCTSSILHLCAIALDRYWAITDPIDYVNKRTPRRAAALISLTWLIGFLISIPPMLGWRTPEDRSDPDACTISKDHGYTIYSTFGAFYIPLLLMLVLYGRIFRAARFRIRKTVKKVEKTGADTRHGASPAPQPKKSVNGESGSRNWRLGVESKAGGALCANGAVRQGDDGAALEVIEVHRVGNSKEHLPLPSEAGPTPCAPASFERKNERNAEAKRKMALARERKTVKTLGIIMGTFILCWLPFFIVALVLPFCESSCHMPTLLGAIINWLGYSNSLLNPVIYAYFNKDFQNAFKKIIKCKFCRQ
# m2 receptor = target: T2, m2 receptor (Homo sapiens, UniProt P08172); assay: NIH 3T3 cells transfected with m2 muscarinic receptor and Gq-i5; type: cell-based
# T2 construct: expressed in transfected cells; host or cells: NIH 3T3 (ATCC CRL 1658)
# T2 sequence (P08172 1-466): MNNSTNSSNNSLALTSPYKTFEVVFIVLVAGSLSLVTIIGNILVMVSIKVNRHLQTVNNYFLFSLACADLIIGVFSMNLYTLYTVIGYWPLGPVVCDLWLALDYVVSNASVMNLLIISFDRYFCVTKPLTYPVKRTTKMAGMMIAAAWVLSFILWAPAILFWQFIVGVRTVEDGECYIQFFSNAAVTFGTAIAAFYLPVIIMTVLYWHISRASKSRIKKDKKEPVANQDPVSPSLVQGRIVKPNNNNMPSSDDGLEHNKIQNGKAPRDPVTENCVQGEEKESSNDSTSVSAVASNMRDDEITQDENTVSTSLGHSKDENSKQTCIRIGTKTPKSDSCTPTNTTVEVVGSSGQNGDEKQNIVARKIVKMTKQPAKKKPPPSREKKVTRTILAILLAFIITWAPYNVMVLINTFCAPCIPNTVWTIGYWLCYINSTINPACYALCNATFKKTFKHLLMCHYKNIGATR
# Procedure: Transfection of cells with muscarinic receptor DNAs (general procedure) NIH 3T3 cells (available from the American Type Culture Collection as ATCC CRL 1658) were grown at 37° C. in a humidified atmosphere (5% CO2) incubator in Dulbecco's modified Eagle's medium (DMEM) supplemented with 4.5 g/l glucose, 4 mM glutamine, 50 units/m1 penicillin, 50 units/m1 streptomycin (available from Advanced Biotechnologies, Inc., Gaithersburg, Md.) and 10% calf serum (available from Sigma, St. Louis, […].). The cells were treated with trypsin-EDTA, spun down and plated at 2×10^6 per 15 cm dish in 20 m1 of DMEM containing 10% calf serum.
# The m1-m5 muscarinic receptor subtypes were cloned substantially as described by Bonner et al., Science 237, 1987, p. 527, and Bonner et al., Neuron 1, 1988, p. 403. For the m2 and m4 receptors, the cells were co-transfected with DNA encoding a chimera between the Gq protein and the five carboxy-terminal amino acids of the Gi protein (the Gq-i5 construct is described by Conklin et al., Nature 363, 1993, p.274).
# On day one, the cells were transfected using the Superfect transfection reagent (available from Qiagen, Valencia, Calif.) in accordance with the manufacturer's instructions. […]
smiles,measurement,setting,value
"CCCCC1CCN(CCCC(=O)c2ccccc2C)CC1 [Compound A, 4-n-Butyl-1-[4-(2-methylphenyl)-4-oxo-1-butyl]piperidine]",agonist activity,serotonin 5-HT1A,no significant activity
same,inhibition of receptor responses (antagonist experiments),serotonin 5-HT1A,did not inhibit
same,antagonism of carbachol-induced responses,m2 receptor,not an antagonist
